pEC50: −log10 of the molar value. Numbered stars: 1 amine (or outer) side, 2 acyl side, 3 side chain; on linkers, the order of the positions; unused ones are H or OH. Bridge positions count the residues as written; N and C are the ends. Square brackets hold non-standard residues; d marks the D form. Peptide text beside a SMILES is read from it. ξ: configuration not given here. ξαMeNle(6-ylidene) = CC(CCCC=[*:3])(N[*:1])C(=O)[*:2]; X1 = CC(CCCCCCC=[*:3])(N[*:1])C(=O)[*:2]; R8 = C=CCCCCCC[C@@](C)(N)C(=O)O; S5 = C=CCCC[C@](C)(N)C(=O)O
Assays:
Type in all cases: cell-based
NCI-H510A = conditions: 72 h
Method: NCI-510A, epithelial (small cell lung cancer, SCLC), ATCC-HBT-124; and Hepatocytes (normal liver), from a donor was provided by Foundation DTI-Donation & Transplantation Institute from surgical wastes and from organs not suitable for transplantation
(§1) Cell line MCF-7 was cultured in incubator under CO2 (6%) at 37° C. in DMEM high glucose (Dulbecco's Modified Eagle Solution, Gibco-BRL 31966-21) medium with 10% fetal bovine serum inactivated (FBS) (Gibco-BRL 10106-169). Cell lines HL-60, NCI-H524, NCI-H526, NCI-H69, NCI-H82, NCI-H187 and H5B were cultured in an incubator at 37° C. in RPMI-1640 (Sigma R8758) medium with 10% of fetal bovine serum inactivated (FBS) and 2 mM glutamine (Sigma G7513). Cell line NCI-H510A was cultured in incubator in F12K medium with 10% of fetal bovine serum inactivated (FBS). Cell line GBM-18 and GBM-27 were cultured in incubator under CO2 (6%) at 37° C. in complete medium (Neurobasal+B27+Glutamax+Growth factors).
(§2) During the amplification step and the assays, adherent cells were rinsed with DPBS (Dulbecco's Phosphate Buffered Saline, Sigma D1283) three times and afterward treated for 5 minutes with trypsin ([…]) (Gibco-BRL, 15400054) in solution of DPBS at 37° C., and, once detached, transferred in the culturing medium. No-adherent cells were centrifuged and transferred in the culturing medium. Cells were counted in a Neubauer chamber after labelling with Tripan-Blue.
(§3) MCF-7, NCI-H187, NCI-H69, NCI-H526 and H5B cells were seeded at a density of 5000 cells/well; NCI-H524 and NCI-H82 were seeded at a density of 2500 cells/well; HL-60 and NCI-H510A at 10000 cells/well in 100 μl of medium in 96 well plates. After 24 h, the compounds to be tested were added to calculate the dose/response curve at the starting concentration of 100 μM with serial dilutions (1:1). Controls were the untreated cells. Each experiment was performed in triplicate.
(§4) Cells were incubated during 72 h in incubator under CO2 atmosphere at 37° C. Cell viability was measured by means of MTT (3-(4,5-dimethylthiazol-2-yl)-2,5-diphenyltetrazolium bromide) assay, Alamar Blue® (Biosource DAL1100) and Hexosaminidase activity test, consecutively, following manufacturer instructions.
(§5) MTT: 1. Stock solution of MTT (475989 Calbiochem) was 5 mg/ml in PBS 1×. As negative control (experiment noise) 3 wells were treated with 20 μl/well of a solution of SDS 10% in H2O. The same control was used for Alamar Blue/Hexosaminidase. 10 μl/well of MTT solution were added and the plate was incubated for 3-4 hr. The medium was discarded and 100 μl of extracting buffer (PBS 1×, 15% SDS, 50% […] N,N-Dimethylformamide, pH 4,7) were added to each well. Plates were incubated for 16 h at room temperature under orbital shaking. Absorbance at 570 nm was finally measured.
(§6) Alamar Blue: 10 μl Alamar Blue solution was added to each well and the plates were incubated for […] in the incubator. Fluorescence ratio at 535/590 (excitation/emission) was measured in Cytofluor (Millipore) fluorimeter. Blank control was determined by lysis of untreated cells with con 2% of Triton X100, right before adding Alamar Blue solution.
(§7) Hexosaminidase activity test: after Alamar Blue lecture, medium was discarded and plates were rinsed once with PBS. 60 μl hexosaminidase substrate (p-nitrophenol-N-acetyl-beta-D-glucosamide 7.5 mM [Sigma N-9376], sodium citrate 0.1 M, pH 5.0, 0.25% Triton X-100) was added to each well and the plates were incubated at 37° C. for 2-5 h, according to the cell type (hexosaminidase activity changes according to the cell type). […] Blank control was the same as described before.
(§8) Data analysis was performed calculating the percentage of cell viability normalized vs. the values of negative control, which was considered equal to 100%. The dose/response curve was fitted through the sigmoidal equation dose-response (variable slope) and the EC50 values were calculated as follow: Y=Bottom+(Top−Bottom)/(1+10^{[(Log EC50−X)*HillSlope]},

cancer cell lines = experiment: Inhibition of cancer cell proliferation, general statements
Method: as §3, §4, §8

NCI-H187 = conditions: 72 h
Method: NCI-H187, epithelial (small cell lung cancer, SCLC), ATCC-CRL-5804;
as §1, §2, §3, §4, §5, §6, §7, §8

NCI-H82 = conditions: 72 h
Method: NCI-H82, epithelial (small cell lung cancer, SCLC), ATCC-CRL-5811;
as §1, §2, §3, §4, §5, §6, §7, §8

Row | Compound | pEC50 (NCI-H510A) | pEC50 (NCI-H187) | pEC50 (NCI-H82) | inhibition of cancer cell proliferation (in words) (cancer cell lines)
1 | CC(C)C[C@@H]1NC(=O)[C@H](C)NC(=O)[C@H](CCC(N)=O)NC(=O)[C@H](Cc2ccccc2)NC(=O)C(C)(NC(=O)[C@H](CC(C)C)NC(=O)[C@H](CC(N)=O)NC(=O)[C@@H](NC(=O)[C@H](CC(C)C)NC(=O)[C@H](CCCCN)NC(=O)[C@@H](NC(=O)[C@@H](N)CCCNC(=N)N)C(C)C)C(C)C)CCCCCCC=CCCCC(C)(C(=O)N[C@H](C(=O)N2CCC[C@H]2C(N)=O)C(C)C)NC(=O)[C@H](CCC(N)=O)NC(=O)[C@H](CCCNC(=N)N)NC1=O (stereo partly drawn) [IDP-H14-H2-01] (H-RVKLVNL[X1]FQALRQ[ξαMeNle(6-ylidene)]VP-NH2; staple 8-15; N-terminus and C-terminus assumed) | ~5.12 | ~5.12 | ~5.12 | active
2 | CC(C)C[C@H](NC(=O)[C@H](CCCCN)NC(=O)[C@@H](NC(=O)[C@@H](N)CCCNC(=N)N)C(C)C)C(=O)N[C@H](C(=O)N[C@@H](CC(N)=O)C(=O)N[C@@H](CC(C)C)C(=O)N[C@]1(C)CCCCCCC=CCCC[C@@](C)(C(=O)N[C@H](C(=O)N2CCC[C@H]2C(N)=O)C(C)C)NC(=O)[C@H](CCC(=O)O)NC(=O)[C@H](CCCNC(=N)N)NC(=O)[C@H](CC(C)C)NC(=O)[C@H]([C@@H](C)O)NC(=O)[C@H](CCC(N)=O)NC(=O)[C@H](Cc2ccccc2)NC1=O)C(C)C [IDP-H14-Q9] (H-RVKLVNL[R8]FQTLRE[S5]VP-NH2; staple 8-15; N-terminus assumed) |  | ~4.90 |  | active
3 | CC(C)C[C@H](NC(=O)[C@H](CC(N)=O)NC(=O)[C@@H](NC(=O)[C@H](CC(C)C)NC(=O)[C@H](CCCCN)NC(=O)[C@@H](NC(=O)[C@H](CCCNC(=N)N)NC(=O)[C@H](CCCNC(=N)N)NC(=O)[C@H](CCCNC(=N)N)NC(=O)[C@H](CCCNC(=N)N)NC(=O)[C@H](CCCNC(=N)N)NC(=O)[C@H](CCCNC(=N)N)NC(=O)[C@H](CCCNC(=N)N)NC(=O)[C@@H](N)CCCNC(=N)N)C(C)C)C(C)C)C(=O)NCC(=O)N[C@@H](Cc1ccccc1)C(=O)N[C@@H](C)C(=O)N[C@H](C(=O)N[C@@H](CC(C)C)C(=O)N[C@@H](CCCNC(=N)N)C(=O)N[C@@H](CCC(=O)O)C(=O)N[C@@H](Cc1c[nH]cn1)C(=O)N[C@H](C(=O)N1CCC[C@H]1C(N)=O)C(C)C)[C@@H](C)O [LH02] (H-RRRRRRRRVKLVNLGFATLREHVP-NH2; N-terminus and C-terminus assumed) |  | ~5.00 | ~5.15 | 

Second part, led by results:

Row | pEC50 (NCI-H510A) | pEC50 (NCI-H187) | pEC50 (NCI-H82) | Compound | inhibition of cancer cell proliferation (in words) (cancer cell lines)
4 | ~5.12 | ~5.12 | ~5.12 | CC(C)C[C@@H]1NC(=O)[C@H](C)NC(=O)[C@H](C)NC(=O)[C@H](Cc2ccccc2)NC(=O)[C@](C)(NC(=O)[C@H](CC(C)C)NC(=O)[C@H](CC(N)=O)NC(=O)[C@@H](NC(=O)[C@H](CC(C)C)NC(=O)[C@H](CCCCN)NC(=O)[C@@H](NC(=O)[C@@H](N)CCCNC(=N)N)C(C)C)C(C)C)CCCCCCC=CCCC[C@@](C)(C(=O)N[C@H](C(=O)N2CCC[C@H]2C(N)=O)C(C)C)NC(=O)[C@H](CCC(=O)O)NC(=O)[C@H](CCCNC(=N)N)NC1=O [IDP-H14-A09] (H-RVKLVNL[R8]FAALRE[S5]VP-NH2; staple 8-15; N-terminus assumed) | active
5 | ~5.12 | ~5.12 | ~5.12 | CC(C)C[C@H](NC(=O)[C@H](CCCCN)NC(=O)[C@@H](NC(=O)[C@@H](N)CCCNC(=N)N)C(C)C)C(=O)N[C@H](C(=O)N[C@@H](CC(N)=O)C(=O)N[C@@H](CC(C)C)C(=O)NC1(C)CCCCCCC=CCCCC(C)(C(=O)N[C@H](C(=O)N2CCC[C@H]2C(N)=O)C(C)C)NC(=O)[C@H](C)NC(=O)[C@H](CCCNC(=N)N)NC(=O)[C@H](CC(C)C)NC(=O)[C@H]([C@@H](C)O)NC(=O)[C@H](C)NC(=O)[C@H](Cc2ccccc2)NC1=O)C(C)C (stereo partly drawn) [IDP-H14-A12] (H-RVKLVNL[X1]FATLRA[ξαMeNle(6-ylidene)]VP-NH2; staple 8-15; N-terminus and C-terminus assumed) | active
6 | ~5.12 | ~5.12 | ~5.12 | CC(C)C[C@H](NC(=O)[C@H](CCCCN)NC(=O)[C@@H](NC(=O)[C@H](CCCNC(=N)N)NC(=O)[C@H](CCCNC(=N)N)NC(=O)[C@H](CCCNC(=N)N)NC(=O)[C@H](CCCNC(=N)N)NC(=O)[C@H](CCCNC(=N)N)NC(=O)[C@H](CCCNC(=N)N)NC(=O)[C@H](CCCNC(=N)N)NC(=O)[C@@H](N)CCCNC(=N)N)C(C)C)C(=O)N[C@H](C(=O)N[C@@H](CC(N)=O)C(=O)N[C@@H](CC(C)C)C(=O)NC1(C)CCCCCCC=CCCCC(C)(C(=O)N[C@H](C(=O)N2CCC[C@H]2C(N)=O)C(C)C)NC(=O)[C@H](CCC(=O)O)NC(=O)[C@H](CCCNC(=N)N)NC(=O)[C@H](CC(C)C)NC(=O)[C@H]([C@@H](C)O)NC(=O)[C@H](C)NC(=O)[C@H](Cc2ccccc2)NC1=O)C(C)C (stereo partly drawn) [IDP-H14-CPP] (H-RRRRRRRRVKLVNL[X1]FATLRE[ξαMeNle(6-ylidene)]VP-NH2; staple 15-22; N-terminus and C-terminus assumed) | 
7 | ~5.12 | ~5.12 | ~5.12 | CC(C)C[C@H](NC(=O)[C@H](CCCCN)NC(=O)[C@@H](NC(=O)[C@@H](N)CCCNC(=N)N)C(C)C)C(=O)N[C@H](C(=O)N[C@@H](CC(N)=O)C(=O)N[C@@H](CC(C)C)C(=O)NC1(C)CCCCCCC=CCCCC(C)(C(=O)N[C@H](C(=O)N2CCC[C@H]2C(N)=O)C(C)C)NC(=O)[C@H](Cc2ccccc2)NC(=O)[C@H](CCCNC(=N)N)NC(=O)[C@H](CC(C)C)NC(=O)[C@H]([C@@H](C)O)NC(=O)[C@H](C)NC(=O)[C@H](Cc2ccccc2)NC1=O)C(C)C (stereo partly drawn) [IDP-H14-F12] (H-RVKLVNL[X1]FATLRF[ξαMeNle(6-ylidene)]VP-NH2; staple 8-15; N-terminus and C-terminus assumed) | active
8 | ~5.12 | ~5.12 | ~5.12 | CC(C)C[C@H](NC(=O)[C@H](CCCCN)NC(=O)[C@@H](NC(=O)[C@@H](N)CCCNC(=N)N)C(C)C)C(=O)N[C@H](C(=O)N[C@@H](CC(N)=O)C(=O)N[C@@H](CC(C)C)C(=O)NC1(C)CCCCCCC=CCCCC(C)(C(=O)N[C@H](C(=O)N[C@@H](Cc2ccccc2)C(N)=O)C(C)C)NC(=O)[C@H](CCC(=O)O)NC(=O)[C@H](CCCNC(=N)N)NC(=O)[C@H](CC(C)C)NC(=O)[C@H]([C@@H](C)O)NC(=O)[C@H](C)NC(=O)[C@H](Cc2ccccc2)NC1=O)C(C)C (stereo partly drawn) [IDP-H14-F14] (H-RVKLVNL[X1]FATLRE[ξαMeNle(6-ylidene)]VF-NH2; staple 8-15; N-terminus and C-terminus assumed) | active

Source: patent US11440939B2, “Anticancer peptides” (IDP DISCOVERY PHARMA, S.L., priority 2017, dated 2022)
